Earlier results on three compounds are cited in US7547545B2, “Directed in vitro differentiation of marrow stromal cells into neural cell progenitors” (priority 2001, dated 2009).

Data set [1] relates to prostate tumor cells. Conditions: Cox et al. 1999.
In data set [2] the test system is C6 glioma cells. Conditions: Sharma et al. 1987 and Ghosh et al. 1997.
The test system of data set [3] is medulloblastoma cell line, MCD-1. Conditions: MCD-1 cells, Moore et al. 1996.

Consider `CC(C)NCC(O)c1ccc(O)c(O)c1` (centres unmarked) [isoproterenol], for which the neuroendocrine characteristics entry in data set [1] was “induce prostate tumor cells to assume many of the characteristics of neuroendocrine cells”.

In the case of `CCCC(=O)Nc1ncnc2c1ncn2[C@@H]1O[C@@H]2COP(=O)(O)O[C@H]2[C@H]1OC(=O)CCC` [dbcAMP, dibutyryl cyclic AMP], in data set [2], the neural differentiation result is reported as “induced neural differentiation”. For the same compound, in data set [1], the neuroendocrine characteristics result is listed as “induce prostate tumor cells to assume many of the characteristics of neuroendocrine cells”. Further, the extension of processes entry in data set [3] is listed as “greatly increase the extension of processes”.

For `CNC[C@H](O)c1ccc(O)c(O)c1` [epinephrine], the neuroendocrine characteristics entry in data set [1] was “induce prostate tumor cells to assume many of the characteristics of neuroendocrine cells”.
